The numbers were not newly measured in US20260198548A1, “AEROSOL-GENERATING ARTICLE WITH AN AVERSIVE FLAVOURANT IN A REMOVABLE WRAPPER” (PHILIP MORRIS PRODUCTS S.A., priority 2022, published 2026), which cites them from elsewhere.

Counter-ions that a name gives are not always drawn.

In this data set the test system is test panel members (bitter taste). Conditions: reciprocal of the dilution that still has a bitter taste; quinine hydrochloride reference set at 200,000.
In the case of `C=C[C@H]1C[N@@]2CC[C@H]1C[C@H]2[C@H](O)c1ccnc2ccc(OC)cc12` [Quinine hydrochloride, quinine hydrochloride], the Bitterness value was 200,000. Take `C[C@@]12C[C@@H](c3ccoc3)OC(=O)[C@@H]1CC[C@]1(C)[C@H]2[C@@H]2C=C[C@@]1(O)C(=O)O2` [Columbin, columbin]: the Bitterness value is on record as 60,000,000. Regarding amarogentin, the Bitterness value is 58,000,000. For the compound `CC1=C[C@H]2[C@H]3[C@H](C(C)=C4[C@H]5OC(=O)[C@@H](C)[C@@H]5CC[C@](C)(O)[C@@H]43)[C@@]13[C@@H]2[C@@](C)(O)CC[C@H]1[C@H](C)C(=O)O[C@@H]13` [Absinthin, absinthin], the Bitterness value is on record as 3,000,000. Consider `COC1=C[C@@H](C)[C@@H]2C[C@H]3OC(=O)C[C@H]4C(C)=C(OC)C(=O)[C@H]([C@@]2(C)C1=O)[C@@]34C` [Quassin, quassin], for which the Bitterness value was 13,000,000.
